# Assay results taken from patent US20250099478A1, “PLASMA KALLIKREIN INHIBITORS” (Merck Sharp & Dohme LLC, priority 2022, published 2025).
# How the values were obtained:
# Human plasma kallikrein = target: T1, Human plasma kallikrein (Homo sapiens, UniProt P03952); assay: Plasma Kallikrein Assay; assay type: biochemical; conditions: purified Human plasma kallikrein 0.5 nM, substrate Acetyl-K-P-R-AFC; read-out: PKal IC50
# T1 construct: yields a heavy chain (371 amino acids) and a light chain (248 amino acids); purchased Enzyme Research Laboratories
# T1 sequence (P03952 391-638 limits assumed): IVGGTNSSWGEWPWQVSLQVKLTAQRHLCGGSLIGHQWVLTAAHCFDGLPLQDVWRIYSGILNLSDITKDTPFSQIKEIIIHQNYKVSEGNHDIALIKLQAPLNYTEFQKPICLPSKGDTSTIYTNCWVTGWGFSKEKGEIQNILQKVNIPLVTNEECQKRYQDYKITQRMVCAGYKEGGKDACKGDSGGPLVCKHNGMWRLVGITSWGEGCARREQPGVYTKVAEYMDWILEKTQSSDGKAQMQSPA
# T1 sequence (P03952 20-390 partner limits assumed): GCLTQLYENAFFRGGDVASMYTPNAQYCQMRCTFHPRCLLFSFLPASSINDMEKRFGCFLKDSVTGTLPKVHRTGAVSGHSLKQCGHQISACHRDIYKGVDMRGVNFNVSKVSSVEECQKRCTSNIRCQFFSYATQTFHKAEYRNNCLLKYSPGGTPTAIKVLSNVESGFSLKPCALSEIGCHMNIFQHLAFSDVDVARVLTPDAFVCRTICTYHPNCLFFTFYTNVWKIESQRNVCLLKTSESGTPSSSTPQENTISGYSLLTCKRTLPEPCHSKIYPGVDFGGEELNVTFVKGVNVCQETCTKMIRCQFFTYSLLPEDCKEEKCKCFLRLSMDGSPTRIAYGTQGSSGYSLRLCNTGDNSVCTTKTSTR
# Protocol: (§1) The effectiveness of a compound of the present invention as an inhibitor of plasma kallikrein can be determined using a relevant purified serine protease, and an appropriate synthetic substrate. The rate of hydrolysis of the chromogenic or fluorogenic substrate by the relevant serine protease was measured both in the absence and presence of compounds of the present invention. Assays were conducted at rt or at 37° C. […] A decrease in the rate of fluorescence change in the presence of inhibitor is indicative of enzyme inhibition. Such methods are known to one skilled in the art. The results of this assay are expressed as the half-maximal inhibitory concentrations (IC50), or the inhibitory constant, Ki.
# Plasma kallikrein determinations were made in 50 mM HEPES buffer at pH 7.4 containing 150 mM NaCl, 5 mM CaCl2), and 0.1% PEG 8000 (polyethylene glycol; Fisher Scientific). Determinations were made using purified Human plasma kallikrein at a final concentration of 0.5 nM (Enzyme Research Laboratories) and the synthetic substrate, Acetyl-K-P-R-AFC (Sigma #C6608) at a concentration of […].
# Times required to achieve equilibration between enzyme and inhibitor were determined in control experiments. […] IC50 was determined by inflection point from a four parameter logistic curve fit. Ki was calculated using the Cheng Prusoff equation, Ki=IC50/(1+([S]/Km)).
# human factor XIa = target: T2, human factor XIa (Homo sapiens, UniProt P03951); assay: Factor XIa Assay; assay type: biochemical; conditions: human factor XIa 0.04 nM, substrate GPR-AFC, 25° C.
# T2 construct: with human (0.04 nM) factor XIa
# T2 sequence (P03951 388-625 limits assumed): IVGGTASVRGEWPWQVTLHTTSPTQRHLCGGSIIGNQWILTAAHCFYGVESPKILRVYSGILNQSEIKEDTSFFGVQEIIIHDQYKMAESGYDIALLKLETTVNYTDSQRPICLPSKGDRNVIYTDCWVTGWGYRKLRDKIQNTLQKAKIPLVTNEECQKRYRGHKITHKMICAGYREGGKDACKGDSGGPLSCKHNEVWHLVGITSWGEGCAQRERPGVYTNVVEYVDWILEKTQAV
# T2 sequence (P03951 19-387 partner limits assumed): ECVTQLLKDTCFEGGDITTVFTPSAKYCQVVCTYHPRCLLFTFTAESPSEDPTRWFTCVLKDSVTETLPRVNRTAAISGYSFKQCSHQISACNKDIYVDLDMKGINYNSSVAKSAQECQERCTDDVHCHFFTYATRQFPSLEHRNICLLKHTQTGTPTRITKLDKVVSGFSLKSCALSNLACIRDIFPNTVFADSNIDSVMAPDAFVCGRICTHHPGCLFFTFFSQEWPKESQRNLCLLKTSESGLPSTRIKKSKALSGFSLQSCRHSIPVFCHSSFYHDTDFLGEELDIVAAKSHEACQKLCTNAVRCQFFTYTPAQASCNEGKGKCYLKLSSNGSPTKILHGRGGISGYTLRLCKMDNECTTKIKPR
# Protocol: as §1, with “Coagulation factor XIa” for “plasma kallikrein”
# Compounds were pre-incubated for 30 min at 25° C. with human (0.04 nM) factor XIa in 50 mM HEPES buffer with 150 mM sodium chloride, 5 mM calcium chloride, 0.1% PEG 8000, pH 7.4. factor XIa enzymatic activity was determined by addition of the substrate glycine-proline-arginine-7-amido-4-trifluoromethylcoumarin (GPR-AFC) and measurement of the fluorescence at 400/505 nm after a 60 min incubation at 25° C. The % inhibition for each data point was calculated from the data and analyzed using the log (inhibitor) vs. response four parameters equation to determine the half-maximal inhibitory concentrations (IC50). The IC50 were converted to equilibrium inhibitory constants (Ki) using the Cheng-Prusoff equation.
SMILES,IC50 (Human plasma kallikrein),IC50 (human factor XIa)
"CC[C@H](c1ccc(F)cc1)c1nnc(C(=O)N2CCC[C@@]3(C2)OC(=O)Nc2ccc(Cl)c(F)c23)[nH]1 (single isomer, unassigned) [Example 85]",16.7 nM,3110 nM
"CCC(c1cc(C)c2nc[nH]c2c1)n1cc(C(=O)N2CCC[C@@]3(C2)OC(=O)Nc2ccc(Cl)c(F)c23)cn1 (single isomer, unassigned) [Example 45, (4R)-6-Chloro-5-fluoro-1′-(1-((R or S)-1-(4-methyl-1H-benzo[d]imidazol-6-yl)propyl)-1H-pyrazole-4-carbonyl)spiro[benzo[d][1,3]oxazine-4,3′-piperidin]-2(1H)-one]",0.8 nM,1420 nM
"CC[C@@H](c1cc(C)c2nc[nH]c2c1)c1n[nH]c(C(=O)N2CCC[C@@]3(C2)OC(=O)Nc2ccc(Cl)c(F)c23)n1 [Example 109, (R)-6-Chloro-5-fluoro-1′-(3-((S)-1-(4-methyl-1H-benzo[d]imidazol-6-yl)propyl)-TH-1,2,4-triazole-5-carbonyl)spiro[benzo[d][1,3]oxazine-4,3′-piperidin]-2(1H)-one]",1.3 nM,646 nM
"CCC(c1ccc2c(c1)OCO2)n1cc(C(=O)N2CCC[C@@]3(C2)OC(=O)Nc2ccc(Cl)c(F)c23)cn1 (single isomer, unassigned) [Example 32]",4.6 nM,1790 nM
"CCC(F)(c1ccc(F)cc1)c1n[nH]c(C(=O)N2CCC[C@@]3(C2)OC(=O)Nc2ccc(Cl)c(F)c23)n1 (single isomer, unassigned) [Example 129, (3′R)-6-Chloro-5-fluoro-1′-(3-(1-fluoro-1-(4-fluorophenyl)propyl)-1H-1,2,4-triazole-5-carbonyl)spiro[benzo[d][1.3]oxazine-4,3′-piperidin]-2(1H)-one]",8.9 nM,4300 nM
"CCC(c1ccc2ncncc2c1)n1cc(C(=O)N2CCC[C@@]3(C2)OC(=O)Nc2ccc(Cl)c(F)c23)cn1 (single isomer, unassigned) [Example 42]",14.1 nM,5230 nM
"CCC(c1ccc2[nH]ncc2c1)n1cc(C(=O)N2CCC[C@@]3(C2)OC(=O)Nc2ccc(Cl)c(F)c23)cn1 (single isomer, unassigned) [Example 40]",7.1 nM,1000 nM
"CCC(c1ccc(F)c(Cl)c1)c1nnc(C(=O)N2CCC[C@@]3(C2)OC(=O)Nc2ccc(Cl)c(F)c23)[nH]1 (single isomer, unassigned) [Example 97]",13.8 nM,8750 nM
"C[C@H](O)[C@@H](c1ccccc1)n1cc(C(=O)N2CCC[C@@]3(C2)OC(=O)Nc2ccc(Cl)c(F)c23)cn1 [Example 9, (R)-6-Chloro-5-fluoro-1′-(1-((1R,2S)-2-hydroxy-1-phenylpropyl)-1H-pyrazole-4-carbonyl)spiro[benzo[d][1,3]oxazine-4,3′-piperidin]-2(1H)-one]",29.7 nM,5590 nM
"COCC(c1ccccc1)c1n[nH]c(C(=O)N2CCC[C@@]3(C2)OC(=O)Nc2ccc(Cl)c(F)c23)n1 (stereo partly drawn) [Example 130, (4R)-6-Chloro-5-fluoro-1′-(3-(2-methoxy-1-phenylethyl)-1H-1,2,4-triazole-5-carbonyl)spiro[benzo[d][1,3]oxazine-4,3′-piperidin]-2(1H)-one]",5.3 nM,1360 nM
"CCC(c1ccc2c(c1)COC2)c1nnc(C(=O)N2CCC[C@@]3(C2)OC(=O)Nc2ccc(Cl)c(F)c23)[nH]1 (single isomer, unassigned) [Example 112]",1 nM,1560 nM
"CCC(c1ccc(F)cc1)c1c[nH]c(C(=O)N2CCC[C@@]3(C2)OC(=O)Nc2ccc(Cl)c(F)c23)n1 (stereo partly drawn) [Example 70, (4R)-6-Chloro-5-fluoro-1′-(4-(1-(4-fluorophenyl)propyl)-1H-imidazole-2-carbonyl)spiro[benzo[d][1,3]oxazine-4,3′-piperidin]-2(1H)-one]",5.7 nM,946 nM
"O=C1Nc2ccc(Cl)c(F)c2[C@@]2(CCCN(C(=O)c3nnc(C4(c5ccc(F)cc5)CCOCC4)[nH]3)C2)O1 [Example 94, (R)-6-Chloro-5-fluoro-1′-(5-(4-(4-fluorophenyl)tetrahydro-2H-pyran-4-yl)-4H-1,2,4-triazole-3-carbonyl)spiro[benzo[d][1,3]oxazine-4,3′-piperidin]-2(1H)-one]",5.6 nM,2490 nM
O=C1Nc2ccc(Cl)c(F)c2[C@@]2(CCCN(C(=O)c3cnc([C@@H](O)c4ccc(F)cc4)[nH]3)C2)O1 [Example 77],56.6 nM,8130 nM
"CCC(c1ccnc(C(F)(F)F)c1)n1cc(C(=O)N2CCC[C@@]3(C2)OC(=O)Nc2ccc(Cl)c(F)c23)cn1 (single isomer, unassigned) [Example 38]",1.8 nM,2060 nM
"O=C1Nc2ccc(Cl)c(F)c2[C@@]2(CCCN(C(=O)c3cnn(Cc4ccc5c(c4)COC5)c3)C2)O1 [Example 60, (R)-6-chloro-1′-(1-((1,3-dihydroisobenzofuran-5-yl)methyl)-1H-pyrazole-4-carbonyl)-5-fluorospiro[benzo[d][1,3]oxazine-4,3′-piperidin]-2(1H)-one]",14.7 nM,–
"O=C1Nc2ccc(Cl)c(F)c2[C@@]2(CCCN(C(=O)c3cnn(Cc4ccc5c(c4)CC(CO)O5)c3)C2)O1 (stereo partly drawn) [Example 58, (4R)-6-Chloro-5-fluoro-1′-(1-((2-(hydroxymethyl)-2,3-dihydrobenzofuran-5-yl)methyl)-1H-pyrazole-4-carbonyl)spiro[benzo[d][1,3]oxazine-4,3′-piperidin]-2(1H)-one]",10.7 nM,–
"O=C1Nc2ccc(Cl)c(F)c2[C@@]2(CCCN(C(=O)c3nnc(Cc4cccc(C(F)(F)F)c4)[nH]3)C2)O1 [Example 115, (R)-6-Chloro-5-fluoro-1′-(5-(3-(trifluoromethyl)benzyl)-4H-1,2,4-triazole-3-carbonyl)spiro[benzo[d][1,3]oxazine-4,3′-piperidin]-2(1H)-one]",23.9 nM,–
"O=C1Nc2ccc(Cl)c(F)c2[C@@]2(CCCN(C(=O)c3nnc(Cc4cccc(OC(F)F)c4)[nH]3)C2)O1 [Example 90, (R)-6-Chloro-1′-(5-(3-(difluoromethoxy)benzyl)-4H-1,2,4-triazole-3-carbonyl)-5-fluorospiro[benzo[d][1,3]oxazine-4,3′-piperidin]-2(1H)-one]",33.4 nM,–
"Cc1ccc(Cc2nnc(C(=O)N3CCC[C@@]4(C3)OC(=O)Nc3ccc(Cl)c(F)c34)[nH]2)cc1C [Example 126, (R)-6-Chloro-1′-(5-(3,4-dimethylbenzyl)-4H-1,2,4-triazole-3-carbonyl)-5-fluorospiro[benzo[d][1,3]oxazine-4,3′-piperidin]-2(1H)-one]",33.1 nM,–
"O=C1Nc2ccc(Cl)c(F)c2[C@@]2(CCCN(C(=O)c3cnn(Cc4ccccc4)c3)C2)O1 [Example 3, (R)-1′-(1-Benzyl-1H-pyrazole-4-carbonyl)-6-chloro-5-fluorospiro[benzo[d][1,3]oxazine-4,3′-piperidin]-2(1H)-one]",–,1380 nM
"Cn1cc(-c2ccc(Cc3nnc(C(=O)N4CCC[C@@]5(C4)OC(=O)Nc4ccc(Cl)c(F)c45)[nH]3)cc2)cn1 [Example 91, (R)-6-Chloro-5-fluoro-1′-(5-(4-(1-methyl-1H-pyrazol-4-yl)benzyl)-4H-1,2,4-triazole-3-carbonyl)spiro[benzo[d][1,3]oxazine-4,3′-piperidin]-2(1H)-one]",25.2 nM,–
"O=C1Nc2ccc(Cl)c(F)c2[C@@]2(CCCN(C(=O)c3cnn(Cc4ccc5ccsc5c4)c3)C2)O1 [Example 55, (R)-1′-(1-(Benzo[b]thiophen-6-ylmethyl)-1H-pyrazole-4-carbonyl)-6-chloro-5-fluorospiro[benzo[d][1,3]oxazine-4,3′-piperidin]-2(1H)-one]",17.1 nM,–
"CC[C@@H](c1ccc(F)cc1)c1nnc(C(=O)N2CCC[C@@]3(C2)OC(=O)Nc2ccc(Cl)c(F)c23)[nH]1 (single isomer, unassigned) [Example 84]",4.5 nM,–
"O=C1Nc2ccc(Cl)c(F)c2[C@@]2(CCCN(C(=O)c3cnn(Cc4ccc(F)c(F)c4)c3)C2)O1 [Example 4, (R)-6-Chloro-1′-(1-(3,4-difluorobenzyl)-1H-pyrazole-4-carbonyl)-5-fluorospiro[benzo[d][1,3]oxazine-4,3′-piperidin]-2(1H)-one]",20 nM,–
